From patent publication US4976960A, “Food supplements” (Bar Ilan University, priority 1986, dated 1990)
Where “and” joins values, the source holds several entries; their conditions need not be identical. Equal entries are not always repeated.

Columns and labels:
peroxides in the skin = experiment: Peroxide level in skin of adult mice (TBA test), topical application; format: in vivo; details: 0.1% in Oil of Olay
Excerpt: Samples of lotions and appropriate controls were applied to mice or rat skin for a fixed period. The application was done once a day. Experiments were terminated by killing the animal, peeling the skin and freezing it in liquid nitrogen. Samples of the frozen skin were homogenized in 0.2M phosphate buffer, pH 6.5. After centrifugation, the supernatant was collected and analyzed for the peroxide value using the TBA (thiobarbituric acid) test as described by Sinnhuber et al, Food Res. 23:620 (1958).
In these experiments adult mice (2 months old) were treated as described in Example 2. The grown mice were shaved before applying the lotions to the skin. In this experiment the antioxidant was dissolved in Oil of Olay. Mice were sacrificed after 21 days.

[1] = tested on: peroxide level in the skin; experiment: Malondialdehyde (MDA) level in epidermis of UV-irradiated hairless mice; format: in vivo, hairless mice (SKH/Hr); details: for % decrease in MDA, mean / MDA, Treated Irradiated Site, mean / % decrease in MDA / MDA, Treated Irradiated Site: 5% in ethanol
Excerpt: In this experiment, alpha-tocopheryl acetate and the present antioxidant were applied to the skin of hairless mice and the level of peroxide in the skin after exposure to UV radiation compared to a control group. The detailed procedure was as follows.
The malondialdehyde (MDA) assay is based on the methods of Dixit et al [J. Invest. Derm., 81: 369-75 (1983)], Tappel and Summerfield ["Measurement of and protection from in vivo lipid peroxidation", Free Radicals in Biology Vol. IV (1980). Academic Press, New York (W. A. Pryor, ed.)] and Placer et al [Analytical Biochemistry, 16:359-64 (1966)].
6-8week old hairless mice [(SKH/Hr); Skin and Cancer Hospital, Temple University, Philadelphia] were anesthetized using a 1:10 dilution of Sodium Pentobarbital (50 mg./ml., Elkins-Sinn. Inc.). The UV light sources were 2 fluorescent lamps (Westinghouse PS-40) and light intensity was measured with an Optometer (United Detector Technology) using a UVB filter. The tissue was homogenized using a Heat Systems model W-10 Sonicator, filtration and centrifugation of the homogenates being effected through a 2.5 micron Millipore filter and a Sorvall RC-5 Speed Centrifuge, respectively. The buffer consisted of 0.1M potassium phosphate, pH 7.4 with 10^-4 M magnesium chloride.
The protein assay is based on the method given in Clinical Chemistry, 23: 908 (1977). The modified biuret reagent contains per liter 3.8 g. CuSO4, 6.7 g. EDTA, 17.5 g. glycine, 14.0 g. NaCI and 40.0 g. NaOH. Absorbance was measured on an MS-2 Spectrophotometer (Micromedic Systems, Inc.).
20 mice were anesthetized with Sodium Pentobarbital (0.5 mg./10 g. body weight). Two rectangular areas, 6.25 cm.^2 each, were outlined on the dorsal and ventral sides of each mouse. The dorsal areas were designated as left dorsal (site A) and right dorsal (site B). The ventral areas were designated as left ventral (site C) and right ventral (site D). The products were applied in an aliquot of 75 ul. to the designated sites. The application protocol was randomized so that a given treatment was not restricted to the same area of the skin. One site on each dorsal and ventral side remained untreated to serve as the irradiated controls. 15 minutes after product application, the mice were exposed to 110 millijoules of UV light per cm.^2 of skin area over a period of 220 seconds per side. The mice were placed so that the area to be irradiated was directly under the light source while the areas on the other side were protected from the radiation. The mice were irradiated on both the dorsal and ventral sides. After UV treatment, the mice were returned to separate cages to recover from the anesthesia.
4 hours after irradiation, the mice were sacrificed by cervical dislocation. The skin was removed and stretched over a styrofoam block. The epidermis was separated from the dermis by heating the skin in a water bath for 60 seconds at 54° C. and then scraping the surface with a scalpel. Each 6.25 cm. area of epidermis was placed in a separate 1.5 ml. Eppendorf vial with 200 ul. of buffer. The pieces of epidermis were homogenized by sonication for 2×30 seconds, with a 10 second pause between each 30 second period to prevent heat buildup. The vial was kept in an ice bath.
After homogenization, 1 ml. of buffer was added to each vial and vortexed. The homogenate was filtered through a 2.5 micron filter, twice. An aliquot containing 1.4-1.8 mg. of homogenate protein was placed into test tubes with 0.6 ml. 10% trichloroacetic acid and 1.2 ml. 0.5% (w/v) 2-thiobarbituric acid. The test tube mixture was well vortexed and then placed in a boiling water bath for 10 minutes, the top of the test tube being covered with a marble which acted as a condensor. The tubes were cooled with running tap water and centrifuged for 15 minutes at 30,000×g. Blanks were prepared by placing 0.1M phosphate buffer in test tubes. All assays were done in duplicate. […]

[2] = tested on: liver microsomal NADPH oxidase; experiment: Liver microsomal NADPH oxidase activity in rabbits fed supplemented vitamin E deficient diet; format: in vivo; details: after 30 days, vs basal vitamin E deficient diet
pyruvate oxidase = experiment: Pyruvate oxidase activity in rabbits fed supplemented vitamin E deficient diet; format: in vivo; details: after 30 days, vs basal vitamin E deficient diet
prostacyclin (PGI2) = experiment: Endogenous release of prostacyclin by isolated aorta segments of fed rabbits; format: in vivo; details: after 30 days, vs basal vitamin E deficient diet
Fibroblasts = experiment: Lipid peroxidation in fibroblast culture, TBA assay; format: cell-based; details: 0.01%, 3 days of incubation, 37° C.
Protocol: The possibility that the present antioxidant may serve as a substitute for vitamin E was also tested in tissue culture. Fibroblasts were grown in an appropriate medium for three days at a temperature of 37° C., (a) in absence of additive (control), (b) in presence of 0.01% vitamin E, and (c) in presence of 0.01% present (crude) antioxidant.

[3] = combined dorsal and ventral mean
[4] = ventral, individual samples 6-10

## COc1ccc(O)c(C(C)(C)C)c1 [BHA, butylated hydroxy anisole]
Peroxides in the skin
  effect on the level of peroxides in the skin: no reduction of the level of peroxides was observed

## Cc1cc(C(C)(C)C)c(O)c(C(C)(C)C)c1 [BHT, butylated hydroxy toluene]
Peroxides in the skin
  effect on the level of peroxides in the skin: no reduction of the level of peroxides was observed

## CC(=O)Oc1c(C)c(C)c2c(c1C)CCC(C)(CCC[C@H](C)CCC[C@H](C)CCCC(C)C)O2 (stereo partly drawn) [alp. tocopheryl acetate, alpha-tocopheryl acetate]
[1]; 1% antioxidant in Oil of Olay vs 5% alpha-tocopheryl acetate in ethanol
  effectiveness in reducing the level of peroxides in the skin: significantly less effective
[1]; [3]
  % decrease in MDA, mean: 27.82%
  MDA, Treated Irradiated Site, mean: 0.168 nM MDA/mg. protein
[1]; dorsal mean
  % decrease in MDA, mean: 27.26%
  MDA, Treated Irradiated Site, mean: 0.165 nM MDA/mg. protein
[1]; dorsal, individual samples 1-5
  % decrease in MDA: 34.78% and 39.77% and 22.92% and 12.75% and 26.10%
  MDA, Treated Irradiated Site: 0.105 nM MDA/mg. protein and 0.103 nM MDA/mg. protein and 0.074 nM MDA/mg. protein and 0.308 nM MDA/mg. protein and 0.235 nM MDA/mg. protein
[1]; ventral mean
  % decrease in MDA, mean: 28.38%
  MDA, Treated Irradiated Site, mean: 0.172 nM MDA/mg. protein
[1]; [4]
  % decrease in MDA: 42.41% and 28.95% and 23.17% and 22.39% and 25.00%
  MDA, Treated Irradiated Site: 0.148 nM MDA/mg. protein and 0.189 nM MDA/mg. protein and 0.305 nM MDA/mg. protein and 0.027 nM MDA/mg. protein

## Cc1c(C)c2c(c(C)c1O)CCC(C)(CCCC(C)CCCC(C)CCCC(C)C)O2 (stereo not drawn) [alpha tocopherol]
Peroxides in the skin
  effect on the level of peroxides in the skin: no reduction of the level of peroxides was observed

## vitamin E
[2]
  liver microsomal NADPH oxidase activity (enzymatic lipid peroxidation): decreased
Pyruvate oxidase
  pyruvate oxidase activity (enzymatic lipid peroxidation): decreased
Prostacyclin (PGI2)
  endogenous release of prostacyclin (PGI2), detected as 6-keto-PGF1-alpha: significantly increased
Fibroblasts
  Peroxide value (TBA assay): 0.015
